A word on the Ki: it is a measure of affinity in units of concentration, obtained from inhibition or displacement.

Among the data in patent US12098144B2, “Piperazine indazole glucocorticoid receptor antagonists” (Corcept Therapeutics Incorporated, priority 2021, dated 2024) are Ki values, retold here.

For the test, the target named is T1, glucocorticoid receptor (Homo sapiens, UniProt P04150).
T1 construct: endogenous in cells; ATCC cat
T1 sequence (P04150 1-777): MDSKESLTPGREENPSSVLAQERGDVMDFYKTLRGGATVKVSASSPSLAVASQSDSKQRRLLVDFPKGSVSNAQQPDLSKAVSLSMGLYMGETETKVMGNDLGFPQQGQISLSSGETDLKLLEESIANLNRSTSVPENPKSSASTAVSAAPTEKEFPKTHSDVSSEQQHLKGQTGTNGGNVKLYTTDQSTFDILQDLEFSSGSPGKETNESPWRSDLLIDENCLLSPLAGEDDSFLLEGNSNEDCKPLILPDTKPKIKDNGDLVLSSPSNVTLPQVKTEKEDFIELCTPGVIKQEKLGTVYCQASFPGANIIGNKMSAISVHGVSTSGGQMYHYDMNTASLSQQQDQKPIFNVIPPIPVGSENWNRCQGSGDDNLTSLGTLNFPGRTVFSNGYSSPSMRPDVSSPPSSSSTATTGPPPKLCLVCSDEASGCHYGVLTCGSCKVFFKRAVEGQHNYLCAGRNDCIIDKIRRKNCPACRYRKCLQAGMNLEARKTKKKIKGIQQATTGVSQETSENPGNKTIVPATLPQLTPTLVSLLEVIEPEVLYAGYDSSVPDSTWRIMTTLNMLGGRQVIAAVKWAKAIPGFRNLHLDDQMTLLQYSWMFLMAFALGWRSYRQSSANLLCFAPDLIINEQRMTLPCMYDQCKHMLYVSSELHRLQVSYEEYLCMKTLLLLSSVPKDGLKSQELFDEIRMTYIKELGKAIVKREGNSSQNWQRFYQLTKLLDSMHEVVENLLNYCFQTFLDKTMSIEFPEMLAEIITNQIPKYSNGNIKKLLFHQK
Description: Hep G2 TAT Ki: inhibition of dexamethasone-induced TAT in HepG2 cells (96 well). The format is cell-based. The settings on record: challenge of 100 nM dexamethasone, IC50 converted to Ki by Cheng and Prusoff equation. The method, then:
Glucocorticoid mediated activation of TAT occurs by transactivation of glucocorticoid response elements in the TAT promoter by glucocorticoid receptor-agonist complex.
HepG2 cells were cultured using MEME media supplemented with 10% (v/v) foetal bovine serum; 2 mM L-glutamine and 1% (v/v) NEAA at 37° C., 5%/95% (v/v) CO2/air.
Compounds were serially half log diluted in 100% (v/v) dimethylsulphoxide from a 10 mM stock.
HepG2 cells were then lysed with 30 μl of cell lysis buffer containing a protease inhibitor cocktail for 15 minutes at 4° C. […] After 2 hours incubation at 37° C. the reaction was terminated by the addition of 15 μl of 10M aqueous potassium hydroxide solution, and the plates incubated for a further 30 minutes at 37° C.
[compound] and fitting the data to a 4 parameter logistic equation.
`Cc1cc2c(cnn2-c2ccc(F)cc2)cc1C1CN(S(=O)(=O)c2cnn(C)n2)CCN1CC(C)C(F)(F)F` (single isomer, unassigned) [Example 33] displayed a Ki of 11 nM. The compound `COCCS(=O)(=O)N1CCN(CC(C)C)C(c2cc3cnn(-c4ccc(F)cc4)c3cc2C)C1` (single isomer, unassigned) [Example 45, 1-(4-fluorophenyl)-5-(1-isobutyl-4-((2-methoxyethyl)sulfonyl)piperazin-2-yl)-6-methyl-1H-indazole] registered a Ki of 510 nM. `Cc1cc2c(cnn2-c2ccc(F)cc2)cc1C1CN(S(=O)(=O)CC2CC2)CCN1CC(C)C` (single isomer, unassigned) [Example 46, 5-(4-((cyclopropylmethyl)sulfonyl)-1-isobutylpiperazin-2-yl)-1-(4-fluorophenyl)-6-methyl-1H-indazole] showed a Ki of 310 nM.

For the compound `COCCn1cc(S(=O)(=O)N2CCN(CC(C)C)C(c3cc4cnn(-c5ccc(F)cc5)c4cc3C)C2)cn1` (single isomer, unassigned) [Example 47, 1-(4-fluorophenyl)-5-(1-isobutyl-4-((1-(2-methoxyethyl)-1H-pyrazol-4-yl)sulfonyl)piperazin-2-yl)-6-methyl-1H-indazole], the Ki is 23 nM. As for `CCn1ncc(S(=O)(=O)N2CCN(CC(C)C)C(c3cc4cnn(-c5ccc(F)cc5)c4cc3C)C2)n1` (single isomer, unassigned) [Example 48, 5-(4-((2-ethyl-2H-1,2,3-triazol-4-yl)sulfonyl)-1-isobutylpiperazin-2-yl)-1-(4-fluorophenyl)-6-methyl-1H-indazole], the Ki is 23 nM. Compound `CCCS(=O)(=O)N1CCN(CC(C)C)C(c2cc3cnn(-c4ccc(F)cc4)c3cc2C)C1` (single isomer, unassigned) [Example 49, 1-(4-fluorophenyl)-5-(1-isobutyl-4-(propylsulfonyl)piperazin-2-yl)-6-methyl-1H-indazole] had a Ki of 31 nM. Compound `Cc1cc2c(cnn2-c2ccc(F)cc2)cc1C1CN(S(=O)(=O)N(C)C)CCN1CC(C)C` (single isomer, unassigned) [Example 50, 3-(1-(4-fluorophenyl)-6-methyl-1H-indazol-5-yl)-4-isobutyl-N,N-dimethylpiperazine-1-sulfonamide] displayed a Ki of 64 nM. `Cc1cc2c(cnn2-c2ccc(F)cc2)cc1C1CN(S(=O)(=O)CC2CC2)CCN1CC(C)C` (single isomer, unassigned) [Example 51, 5-(4-((cyclopropylmethyl)sulfonyl)-1-isobutylpiperazin-2-yl)-1-(4-fluorophenyl)-6-methyl-1H-indazole] displayed a Ki of 28 nM. In the case of `Cc1cc2c(cnn2-c2ccc(F)cc2)cc1C1CN(S(=O)(=O)CC(C)C)CCN1CC(C)C` (single isomer, unassigned) [Example 52, 1-(4-fluorophenyl)-5-(1-isobutyl-4-(isobutylsulfonyl)piperazin-2-yl)-6-methyl-1H-indazole] it was 24 nM. With `Cc1cc2c(cnn2-c2ccc(F)cc2)cc1C1CN(S(=O)(=O)N2CCOCC2)CCN1CC(C)C` (single isomer, unassigned) [Example 53, 4-((3-(1-(4-fluorophenyl)-6-methyl-1H-indazol-5-yl)-4-isobutylpiperazin-1-yl)sulfonyl)morpholine], the Ki came to 41 nM. `Cc1cc2c(cnn2-c2ccc(F)cc2)cc1C1CN(S(=O)(=O)c2cnn(C3CCOCC3)c2)CCN1CC(C)C` (single isomer, unassigned) [Example 54, 1-(4-fluorophenyl)-5-(1-isobutyl-4-((1-(tetrahydro-2H-pyran-4-yl)-1H-pyrazol-4-yl)sulfonyl)piperazin-2-yl)-6-methyl-1H-indazole] returned a Ki of 31 nM. In the case of `CCn1cc(S(=O)(=O)N2CCN(CC(C)C)C(c3cc4cnn(-c5ccc(F)cc5)c4cc3C)C2)cn1` (single isomer, unassigned) [Example 55, 5-(4-((1-ethyl-1H-pyrazol-4-yl)sulfonyl)-1-isobutylpiperazin-2-yl)-1-(4-fluorophenyl)-6-methyl-1H-indazole] it was 19 nM.
